Values quoted from earlier work in PMC12039075 (Structure (London, England : 1993), 2022).

Tested on: human nicotinic receptor (HNR) α4/β2 subunit

SMILES: CN1CCC[C@H]1c1cccnc1 [nicotine]
- published affinity range: 0.6 to 10 nM
